# Measured values: patent US9833444B2 (priority 2013, dated 2017)
# Read-outs that look alike come from different tables or passages of the source.
# Columns and labels:
# [1] = target: recombinant toxin sphingomyelinase D (SMase D) (Loxosceles laeta, UniProt Q8I914); experiment: biochemical; conditions: for inhibition at 40 µM: read-out: inhibition of the hydrolytic activity of recombinant toxin on the SM substrate
# [2] = test system: venom of Loxosceles laeta; type: biochemical; conditions: for inhibition of the hydrolytic activity of the venom of L. laeta on the SM substrate: 40 µM
# human red blood cells [3] = type: cell-based
# human red blood cells [4] = type: cell-based; remark: listed apart in the source
# human keratinocytes [5] = type: cell-based; conditions: compound 40 μM; flow cytometry
# MMP-2 = type: cell-based, human
# MMP-9 = type: cell-based, human
# [6] = test system: dermonecrotic lesions developed in rabbits; type: in vivo; conditions: for histopathological analysis of the skin of rabbits inoculated with the venom: rabbit, in vivo; for reduction of dermonecrotic injury, 24 hours after venom inoculation / inhibition of dermonecrotic injury, 48 hours / inhibition of dermonecrotic injury, 72 hours: rabbits; for reduction of dermonecrotic injury, 24 hours after venom inoculation: compound at three times IC50 (136.2 μM compound 5, 190.2 μM compound 6); for inhibition of dermonecrotic injury, 48 hours / inhibition of dermonecrotic injury, 72 hours: compound at three times IC50
# ERK1/2 = experiment: Activation of MAPK ERK1/2 signaling pathway in keratinocytes induced by recombinant SMases D, ELISA; type: cell-based, human; conditions: compound 40 μM
# human keratinocytes [7] = experiment: cells; type: cell-based; conditions: Keratinocyte, read-out: inhibition of superoxide production
# TNF receptor = type: cell-based, human
# TNF-α = type: cell-based, human
# TGF-β1 = type: cell-based, human
# [8] = Average inhibition of all activities tested (overall efficiency); conditions: average over all aspects analyzed
# Source text: Thus, taking into consideration all the aspects analyzed, compound 5 of the present invention is 61.1% efficient, while compound 6 of this invention is 54.1% efficient in relation to the mechanisms involved in the toxicity of SMases D in the development of loxoscelism.
# [9] = target: PLD of C. pseudotuberculosis (Corynebacterium pseudotuberculosis, UniProt P20626); type: biochemical
# [10] = target: SMases of Stahylococcus aureus (Staphylococcus aureus, UniProt P09978); experiment: Hydrolytic activity of SMase of Staphylococcus aureus on sphingomyelin; type: biochemical; conditions: compound 40 μM
# human keratinocytes [11] = experiment: cells; conditions: Keratinocyte
# [12] = read-out: viability of human keratinocytes treated with recombinant toxin
# [13] = read-out: viability of human keratinocytes treated with venom of L. laeta
# recombinant toxin sphingomyelinase D (SMase D), sequence (Q8I914 27-311 limits assumed): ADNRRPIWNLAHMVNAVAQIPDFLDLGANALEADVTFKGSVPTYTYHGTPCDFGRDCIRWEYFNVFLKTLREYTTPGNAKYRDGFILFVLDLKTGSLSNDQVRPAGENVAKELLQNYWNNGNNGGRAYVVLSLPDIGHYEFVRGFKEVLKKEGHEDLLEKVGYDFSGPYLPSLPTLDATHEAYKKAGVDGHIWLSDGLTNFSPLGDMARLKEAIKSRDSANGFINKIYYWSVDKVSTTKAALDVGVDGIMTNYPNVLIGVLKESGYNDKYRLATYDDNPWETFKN
# SMases of Stahylococcus aureus, sequence (P09978 35-330 limits assumed): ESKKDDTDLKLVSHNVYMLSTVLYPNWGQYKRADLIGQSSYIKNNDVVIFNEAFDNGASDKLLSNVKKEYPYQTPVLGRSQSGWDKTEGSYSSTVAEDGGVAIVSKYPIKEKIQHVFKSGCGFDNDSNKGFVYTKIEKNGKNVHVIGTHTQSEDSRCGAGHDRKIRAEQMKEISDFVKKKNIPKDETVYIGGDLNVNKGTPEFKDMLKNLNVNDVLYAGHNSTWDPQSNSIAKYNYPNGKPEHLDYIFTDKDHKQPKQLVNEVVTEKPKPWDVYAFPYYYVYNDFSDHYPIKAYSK
# PLD of C. pseudotuberculosis, sequence (P20626 25-307 limits assumed): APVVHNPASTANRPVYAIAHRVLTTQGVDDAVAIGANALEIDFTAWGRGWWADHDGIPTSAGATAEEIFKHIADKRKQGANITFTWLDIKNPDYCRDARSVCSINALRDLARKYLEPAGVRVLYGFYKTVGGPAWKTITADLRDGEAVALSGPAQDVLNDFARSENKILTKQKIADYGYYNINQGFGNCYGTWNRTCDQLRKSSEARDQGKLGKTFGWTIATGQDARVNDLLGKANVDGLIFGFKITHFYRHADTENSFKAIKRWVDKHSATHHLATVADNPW
SMILES,IC50 [1],inhibition mechanism [1],reduction of the hydrolytic activity of recombinant toxin on substrate LPC [1],inhibition at 40 µM [1],reduction of the hydrolytic activity of the venom on substrate LPC [2],inhibition of the hydrolytic activity of the venom of L. laeta on the SM substrate [2],reduction of removal of glycophorin C from the surface of human red blood cells (human red blood cells [3]),reduction of binding of the toxin to the red blood cell surface (human red blood cells [4]),reduction of binding of SMases present in venom to the surface of human keratinocytes (human keratinocytes [5]),reduction of binding of recombinant toxin to the surface of human keratinocytes (human keratinocytes [5]),reduction of MMP-2 secretion (MMP-2),inhibition of MMP-9 secretion (MMP-9),histopathological analysis of the skin of rabbits inoculated with the venom [6],"reduction of dermonecrotic injury, 24 hours after venom inoculation [6]","inhibition of dermonecrotic injury, 48 hours [6]","inhibition of dermonecrotic injury, 72 hours [6]",reduction of phosphorylated ERK1/2 (ERK1/2),inhibition at 40 µM (human keratinocytes [7]),reduction of TNF-α production (TNF-α),reduction of TGF-β1 production (TGF-β1),further results
"Cc1[nH]c2ccccc2c1/C=N/NS(=O)(=O)c1ccc(Br)cc1 [Compound 5, 4-bromo-N-[(E)-(2-methyl-1H-indol-3-yl)methyleneamino]benzenosulfonamide]",45.4 ± 1.2 µM,uncompetitive action inhibitors,38.6%,45.7%,44.4%,53%,92.6%,96.8%,63.8%,54.9%,81%,completely inhibit,"reduction in the disorganization of the collagen fibers in the dermis, absence of hemorrhage and inflammatory infiltrate",61.8%,60%,56%,65.8%,70.7%,73.9%,88.3%,reversal of toxin-induced removal of the TNF receptor from the cell surface (TNF receptor): 27.7%; efficiency in relation to the mechanisms involved in the toxicity of SMases D (average inhibition of all activities tested) [8]: 61.1%; reduction of PLD activity of C. pseudotuberculosis on sphingomyelin [9]: about 70%; reduction of hydrolytic activity of SMase of Staphylococcus aureus [10]: efficiently reduced; viability at 10 µM (human keratinocytes [11]; [12]): 55.8%; viability at 10 µM (human keratinocytes [11]; [13]): 45.9%
"Cc1cc(OS(=O)(=O)c2ccc(Cl)cc2)cc2c1C(=O)C(=Cc1cccnc1)O2 [Compound 6, 4-methyl-3-oxo-2-(3-pyridylmethylene)benzo[3,4-b]furan-6-yl-4-chlorobenzenesulphonate]",63.4 ± 1.1 µM,uncompetitive action inhibitors,34%,51%,16%,22.7%,88.2%,84%,25.6%,50.77%,98.4%,completely inhibit,"reduction in the disorganization of the collagen fibers in the dermis, absence of hemorrhage and inflammatory infiltrate",36%,45%,49%,80.2%,92.7%,61.1%,89.2%,efficiency in relation to the mechanisms involved in the toxicity of SMases D (average inhibition of all activities tested) [8]: 54.1%; reduction of PLD activity of C. pseudotuberculosis on sphingomyelin [9]: about 68%; reduction of hydrolytic activity of SMase of Staphylococcus aureus [10]: efficiently reduced; viability at 10 µM (human keratinocytes [11]; [12]): 53.5%; viability at 10 µM (human keratinocytes [11]; [13]): 59.3%
